One experiment concerns the target T1, α4β1-CS-1 (Homo sapiens, UniProt P05556+P13612).
T1 construct: characterized in human J6 cells which express VLA-4; endogenous in cells; host or cells: Jurkat J6 cells (human lymphoblast cell line)
Briefly: CS-1 cell adhesion assay, Jurkat J6 cells. Type of experiment: cell-based. The conditions noted are these: J6 cells to CS-1; read-out: Inhibition of cell adhesion (IC50). How it is done:
Jurkat J6 cells (human lymphoblast cell line) were grown as a suspension culture in RPMI 1640 supplemented with FCS (10%) and glutamine (2 mM). RPMI8866 cells (human B lymphoid cell line) were grown as a suspension culture in RPMI 1640 supplemented with FCS (10%) and glutamine (2 mM). RBL-2H3 cells (rat basophilic cell line) were cultured in Eagle's MEM plus Earles salts supplemented with 2 mM L-glutamine, 1 mM sodium pyruvate, 1× non-essential amino acids, 1 mM Na pyruvate 10% heat inactivated foetal calf serum.
Polystyrene 96-well microtitre plates were coated with CS-1 (connecting segment 1, a cell attachment domain of fibronectin) at a concentration of 0.01 mg/mL in bicarbonate buffer overnight at 4° C. The solution was aspirated and the plates washed twice with PBS. The plates were then incubated at room temperature in the presence of 3% BSA for 60 min, ‘flicked’ to expel the BSA and washed twice in bicarbonate buffer. J6 or RPMI cells (as required) were labelled with the fluorescent dye BCECF-AM (10 μM and 6×10^6 cells/mL) for 10 min at 37° C. before the excess was removed by centrifugation at 500 g for 5 min and the cells resuspended at a cell concentration of 1.2×10^7 cells/mL in HBSS. Equal volumes of HBSS containing the compound of formula I (over concentration range 19.0 pM to 5 μM) and cells were added to the CS-1 coated plates. […] The plates were counted in a Wallac Viktor.

For experiment [1], the system named is C57BL/6 mice subjected to desiccating stress. Nature of the experiment: Corneal OGD staining in murine desiccating stress model. Type of experiment: in vivo, mouse. The method, then: Female C57BL/6 mice, aged 6 to 8 weeks, were subjected to DS for 5 days (DS5) as described previously (de Paiva et al., 2006b; Niederkorn et al., 2006). Topical bilateral treatment with 1 eye drop per eye (2 μL volume) or subcutaneous injection (4 μL volume), 2 times per day, was initiated on day 1 concurrently with DS and continued through day 4. Treatment with the compound of formula I or dexamethasone phosphate 0.1% was compared to correspondingly treated vehicle controls. Mice were randomized to receive one of the test articles. Control mice were kept in a non-stressed (NS) environment maintained at 50-75% relative humidity without exposure to airflow or scopolamine and were not treated with test or control article. Treatment effects were assessed on corneal staining with Oregon Green Dextran (OGD); expression of inflammatory markers in ocular surface tissues by real time PCR; cell population analysis in draining cervical lymph nodes by FACS analysis; conjunctival T cell infiltration by immunohistochemistry.
On the morning of the 5th day, mice received one s.c. dose of scopolamine. Two hours later corneal staining was assessed using Oregon Green Dextran (OGD-488), which is a conjugated fluorescent dye of a 70 kDa molecular size (Invitrogen-Molecular Probes) as previously described (de Paiva et al., 2006b). The procedure consisted of instillation of 0.5 μL of OGD on the cornea using a glass capillary pipette, 1 minute before euthanasia. Mice were euthanized by inhalation of isoflurane gas followed by cervical dislocation. Eyes were then rinsed with 2 mL of BSS. Excess liquid was carefully blotted from the ocular surface with filter papers without touching the cornea. Digital pictures of both eyes were taken under 470 nm excitation and 488 nm emission wave lengths using a Nikon SMZ-1500 stereo microscope, with an exposure time of 2 seconds. Both eyes from each animal were evaluated; the right eye always first followed by the left eye. The mean intensity in the central cornea was evaluated from digital images using NIS Elements (version 3.0) by placing a fixed region of interest (a 2-mm diameter circle) on the central cornea. The mean intensity of the fluorescence was read by the software and stored in a database (Excel, Microsoft). This fluorescence measurement in the central ring was done independently by 2 masked observers, for each mouse eye. By the conclusion of the experiment, results were averaged from both observers using all data collected during all study weeks (Excel, Microsoft). Results are presented as geometric mean±95% confidence interval of gray levels.
Due to skewed distribution of OGD data, the analysis was done on the log 10 scale to make the data more normally distributed. Log 10 OGD data was averaged across two observers and the left and right eyes. The mixed effects ANOVA model included treatment group as a fixed effect and week as a random effect. 95% and 99% confidence intervals were constructed for the disease (5 day DS vs untreated group kept in separate vivarium) and compound treatment effects (treatment vs vehicle). As these comparisons were all pre-planned (comparing each treatment to its vehicle group), no adjustment was made for multiplicity. […] T cell density was calculated for each section and averaged across sections for each animal. […]

Experiment [2] relates to non-α4 integrins, including LFA-1. The settings on record: cited from earlier work.

Entries after “also recorded” stand apart in the source; their conditions may differ.

T1 sequence (P13612 34-1032): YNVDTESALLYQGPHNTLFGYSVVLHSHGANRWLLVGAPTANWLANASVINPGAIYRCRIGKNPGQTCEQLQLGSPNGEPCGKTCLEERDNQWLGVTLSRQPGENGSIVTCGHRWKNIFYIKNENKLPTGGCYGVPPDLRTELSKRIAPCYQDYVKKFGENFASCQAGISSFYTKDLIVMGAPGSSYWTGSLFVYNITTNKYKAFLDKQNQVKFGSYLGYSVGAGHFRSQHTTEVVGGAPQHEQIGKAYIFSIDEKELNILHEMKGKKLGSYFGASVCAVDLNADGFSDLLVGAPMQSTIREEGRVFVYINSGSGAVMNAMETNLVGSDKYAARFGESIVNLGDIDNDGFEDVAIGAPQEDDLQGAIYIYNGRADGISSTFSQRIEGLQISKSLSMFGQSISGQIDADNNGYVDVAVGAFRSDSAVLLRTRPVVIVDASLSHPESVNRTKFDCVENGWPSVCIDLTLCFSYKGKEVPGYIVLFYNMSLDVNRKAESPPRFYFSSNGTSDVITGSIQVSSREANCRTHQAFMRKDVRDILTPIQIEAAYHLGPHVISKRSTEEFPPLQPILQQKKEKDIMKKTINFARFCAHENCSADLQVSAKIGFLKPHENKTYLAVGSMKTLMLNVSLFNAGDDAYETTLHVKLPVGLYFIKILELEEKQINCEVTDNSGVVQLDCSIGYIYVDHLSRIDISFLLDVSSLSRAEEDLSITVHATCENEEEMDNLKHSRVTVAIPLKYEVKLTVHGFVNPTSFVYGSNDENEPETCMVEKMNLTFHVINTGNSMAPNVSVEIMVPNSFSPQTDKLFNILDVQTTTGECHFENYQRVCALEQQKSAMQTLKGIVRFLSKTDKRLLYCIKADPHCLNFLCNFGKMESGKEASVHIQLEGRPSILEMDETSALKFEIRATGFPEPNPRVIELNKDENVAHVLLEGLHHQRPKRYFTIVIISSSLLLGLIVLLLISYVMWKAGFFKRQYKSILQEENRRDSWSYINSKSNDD
T1 sequence (P05556 21-798): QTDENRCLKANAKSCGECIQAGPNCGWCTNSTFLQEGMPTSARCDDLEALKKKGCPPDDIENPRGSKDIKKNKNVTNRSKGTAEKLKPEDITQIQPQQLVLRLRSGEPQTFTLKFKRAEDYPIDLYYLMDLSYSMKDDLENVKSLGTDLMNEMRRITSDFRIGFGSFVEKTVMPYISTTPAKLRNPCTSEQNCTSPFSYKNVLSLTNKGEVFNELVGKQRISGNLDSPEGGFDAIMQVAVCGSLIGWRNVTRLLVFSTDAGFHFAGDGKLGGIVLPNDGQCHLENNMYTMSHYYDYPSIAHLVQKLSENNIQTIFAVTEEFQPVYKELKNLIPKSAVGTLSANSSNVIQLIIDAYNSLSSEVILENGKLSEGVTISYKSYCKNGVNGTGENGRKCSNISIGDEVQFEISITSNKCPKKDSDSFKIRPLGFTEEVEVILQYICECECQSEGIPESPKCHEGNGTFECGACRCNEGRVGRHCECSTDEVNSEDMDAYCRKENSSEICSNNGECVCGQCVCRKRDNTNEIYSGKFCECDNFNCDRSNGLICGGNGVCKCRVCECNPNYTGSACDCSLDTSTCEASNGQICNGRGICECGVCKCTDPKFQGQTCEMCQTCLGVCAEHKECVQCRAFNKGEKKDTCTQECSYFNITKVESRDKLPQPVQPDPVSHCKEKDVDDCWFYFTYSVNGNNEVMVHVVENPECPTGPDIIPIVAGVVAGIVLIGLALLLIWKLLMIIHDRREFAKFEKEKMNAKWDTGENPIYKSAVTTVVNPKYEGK

Consider `Cc1ccccc1OCC(=O)N[C@@H](CC(C)C)C(=O)N[C@@H](Cc1ccc(OC(=O)N2CCC(C(N)=O)CC2)cc1)C(=O)O` [GW559090, (2S)-3-[4-({[4-(Aminocarbonyl)-1-piperidinyl]carbonyl}oxy)phenyl]-2-[((2S)-4-methyl-2-{[2-(2-methylphenoxy)acetyl]amino}pentanoyl)amino]propanoic acid], for which the IC50 at α4β1-CS-1 was 8.04 nM. Also, the “OGD intensity score (corneal barrier disruption)” value in experiment [1] (subcutaneous 120 μg 2 times per day, 5 days DS) is reported as “not observed”. In addition, the “OGD intensity score (corneal staining / corneal barrier disruption)” value in experiment [1] (topical bilateral 2 times per day, 5 days DS, vs vehicle (GW559090 1-30 mg/mL; Dex 0.1%), listed as compound of formula I) was “significant decrease; also recorded: significantly decreased; also recorded: dose-dependently prevents”. Besides, the “Most efficacious concentration on OGD intensity score” value in experiment [1] (topical, 1 to 30 mg/mL investigated) came to 30 mg/mL. For the same molecule, in experiment [2], the “Selectivity vs. non-α4 integrins” value was “highly selective”.

What is called IC50 is the concentration at which inhibition is half-maximal.

The values above are taken from patent publication US10413535B2, “Pharmaceutical compositions comprising an integrin ALPHA4 antagonist for use in treating ocular inflammatory conditions” (AXEROVISION, INC., priority 2015, dated 2019).
